Reference: US6942870B2, “Compositions and methods using direct MMP inhibitors for inhibiting photoaging of skin” (The Regents of the University of Michigan, priority 1997, dated 2005)
Entries after “also recorded” stand apart in the source; their conditions may differ.

Tests used:
human skin = assay: UV-induced erythema (skin reddening) of human skin after topical pretreatment, chromameter; assay type: in vivo; conditions: for protection against UV-induced erythema / reduction in erythema: 5% ASA or 3.5% vit. C applied 16 hours prior to exposure; for reduction in erythema: vs untreated (vehicle-only) skin; for inhibition of UV-induced erythema: 2 MED, 20% NAC or 5% FDO pretreatment; for prevention of UV-induced erythema: 5% topical, applied about seven hours prior to UV exposure, vs vehicle-treated skin
Method: (§1) In the following examples, four F36T12 ERE-VHO UV bulbs were used to irradiate human skin. At all times, a Kodocel TA401/407 filter was mounted 4 cm in front of the bulbs to remove UVC radiation (<290 nm). Radiation intensity was monitored using an IL443 phototherapy radiometer and an SED240/UVB/W photodetector (International Light, Newbury, Mass.). Spectroradiometry was performed using an Optronic Labroatories OL 754 system. Total irradiance (290-800 nm) at about 43 cm (17 in.) from the source of four bulbs was about 1.5 mJ/cm^2·s (1.49×10^−3 W/cm^2). The radiation output from this bulb was determined by spectroradiometry to provide about 47% UVB and about 27% UVA (composed of about 9% UVA1 (340-400 nm) and about 18% UVA2 (320-340 nm)), the remainder being visible and IR radiation. An exposure of about 160 seconds under this set of four bulbs is equivalent to an exposure of one MED. Accordingly, when compared with natural sunlight which has 0.5% UVB and 6.5% UVA, it can be seen that the set of four bulbs used in these experiments provides far less UVA radiation than would exposure to the sun of an equivalent amount of UVB.
(§2) In the following examples, a “standard vechicle” of 30% PEG (polyethylene glycol) in 70% ethanol (with 0.05% BHT as preservative) was used. […] MMP activities were measured by zymography.
Chromameter: erythema (skin reddening) was determined 24 h post-exposure using a commercially available Minolta chromameter (chromameter CR200, model 94401085).

type I collagenase = assay: Type I collagenase activity/level in biopsies of UV-exposed human skin; assay type: in vivo; conditions: for collagenase activity after UV exposure: 5% ASA applied 16 hours prior to exposure; for protection against UV-induced type I collagenase activity: 2 MED, 20% NAC or 5% FDO pretreatment; for inhibition of UV-induced increase in collagenase activity: 20% NAC; for inhibition of UV-induced collagenase activity: about 2 MED, 5% topical, about seven hours prior to exposure
Method: as §1, §2
Matrix metalloproteinase assays. Tissue pieces were frozen in liquid nitrogen immediately after biopsy, homogenized in 20 mM Tris HCl (pH 7.6) plus 5 mM CaCl2, and centrifuged at 3000×g for 10 minutes to remove particulates. Ability to release soluble radioactive fragments from 3H-labeled fibrillar Type I collagen (described by Fisher, G. J., et al., Nature, 379, 335-339 (1996) and Hu, C-L, et al., Analytic. Biochem, 88, 638-643 (1978)) was used as a measure of collagenolytic activity. […] Subsequently, 0.2 μCi of collagen substrate (NEN-DuPont, Boston, Mass.) was incubated for 24 hours with 50 μl of tissue extract. At the end of the 24-hour incubation period, the samples were centrifuged at 12,000×g for 10 minutes to pellet the intact protein. Radioactivity remaining in the supernatant fluid was then measured and from this, the percentage of substrate hydrolzyed was determined.

92 KDa gelatinase = assay: 92 kDa gelatinase activity/level in biopsies of UV-exposed human skin (gelatin zymography); assay type: in vivo; conditions: for inhibition of UV-induced increase in 92 KDa gelatinase activity: 1 MED, 20% NAC; for inhibition of UV-induced 92 KDa gelatinase activity: 5% topical, about seven hours prior to exposure
Method: as §1, §2
Gelatin zymography (Varani et al., op. cit.) was used to assess MMP-2 (72-kD gelatinase; gelatinase A) and MMP9 (92-kD gelatinase; gelatinase B) activity. Tissue extracts were electrophoresed in an 8.5% SDS-polyacrylamide gel containing 1 mg/ml of gelatin. After electrophoresis, the SDS was removed by three sequential washes in 1% Triton X-100. The first two washes were for 20 minutes each and the last was overnight. Quantitation of hydrolysis zone width was done by laser densitometry.

[1] = UV absorbance characteristics of UVA blocker over UVA1, UVA2 and UVB wavelengths; assay type: physicochemical
Description: We investigated the effect of pretreatment of skin with a known UVA blocker on both erythema and MMP activity after exposure to 2 MEDs of UV radiation. In particular, we used PARSOL® 1789 (also known as PARSOL A) brand of 4-t-butyl-4′-methoxydibenzoylmethane, which is described in U.S. Pat. No. 4,387,089 (the disclosure of which is incorporated herein by reference). (PARSOL MCX and PARSOL MOX are trademarks for 2-ethylhexyl p-methoxycinnamate, a UVB blocker commonly used in commercial sunscreen, and disclosed in U.S. Pat. No. 4,713,473, the disclosure of which is incorporated herein by reference). The absorbance characteristics of PARSOL® 1789 over the UVA1, UVA2, and UVB wavelengths is shown as the dotted line in FIG. 8A.

[2] = about 2 MED, 5% PARSOL 1789 pretreatment

Molecule: CC(=O)Oc1ccccc1C(=O)O [ASA, acetyl salicylic acid]
- protection against UV-induced erythema (human skin; 1 MED): provided protection against erythema
- protection against UV-induced erythema (human skin; 1 MED, listed as aspirin): reduced the UV-induced erythema
- reduction in erythema (human skin; 1 MED): about 30%
- collagenase activity after UV exposure (type I collagenase; 1 MED, vs untreated skin): not effective at preventing elevated collagenase activity
- collagenase activity after UV exposure (type I collagenase; 1 MED, vs untreated skin, listed as aspirin): greater collagenase activity than untreated skin

Molecule: O/N=C(/C(=N/O)c1ccco1)c1ccco1 [FDO, 2-furildioxime]
- inhibition of UV-induced erythema (human skin): effective at preventing erythema; also recorded: completely inhibited erythema
- protection against UV-induced type I collagenase activity (type I collagenase): some protection against MMP induction

Molecule: CC(=O)N[C@@H](CS)C(=O)O [NAC, N-acetyl cysteine]
- anti-redness effect on UV-exposed skin (human skin; 1 MED, 20% NAC, four or seven hours prior to exposure): no anti-redness effect
- inhibition of UV-induced erythema (human skin): no effect against erythema
- inhibition of UV-induced increase in collagenase activity (type I collagenase; 1 MED, four hour pretreatment): ineffective
- inhibition of UV-induced increase in collagenase activity (type I collagenase; 1 MED, seven hour pretreatment): provided an inhibitory effect
- protection against UV-induced type I collagenase activity (type I collagenase): effective at preventing increased MMP activity; also recorded: significant protection against collagenase activity
- inhibition of UV-induced increase in 92 KDa gelatinase activity (92 KDa gelatinase; four hour pretreatment): ineffective
- inhibition of UV-induced increase in 92 KDa gelatinase activity (92 KDa gelatinase; seven hour pretreatment): provided an inhibitory effect

Molecule: COc1ccc(C(=O)CC(=O)c2ccc(C(C)(C)C)cc2)cc1 [PARSOL® 1789, 4-t-butyl-4′-methoxydibenzoylmethane]
- protection from UV-induced erythema (sunburn) (human skin; [2]): does provide some protection
- gelatinase activity vs UV-exposed vehicle-treated skin (92 KDa gelatinase; [2]): significantly reduced
- gelatinase activity vs vehicle-treated unexposed skin (92 KDa gelatinase; [2]): not significantly different from vehicle-treated unexposed skin
- blocking of UVA1 radiation (absorbance) ([1]; UVA1 wavelengths): somewhat effective at blocking UVA1 radiation
- blocking of UVA2 radiation (absorbance) ([1]; UVA2 wavelengths): especially useful at blocking UVA2 radiation

Molecule: COc1ccc2[nH]cc(CCNC(C)=O)c2c1 [melatonin]
- prevention of UV-induced erythema (human skin; about 2 MED): significantly reduced the erythema
- prevention of UV-induced erythema (human skin; about 2 MED, listed as Melatonin): does appear to prevent erythema
- inhibition of UV-induced collagenase activity (type I collagenase): neither melatonin nor vitamin E (both with pretreatment) prevented induction of MMPs; also recorded: did not function to inhibit the increased MMP activity
- inhibition of UV-induced 92 KDa gelatinase activity (92 KDa gelatinase; about 2 MED): neither melatonin nor vitamin E (both with pretreatment) prevented induction of MMPs; also recorded: did not function to inhibit the increased MMP activity

Molecule: CC1=C(/C=C/C(C)=C/C=C/C(C)=C/CO)C(C)(C)CCC1 [retinol]
- prevention of UV-induced elevation in type I collagenase activity (type I collagenase; suberythemal 0.5 MED, 0.1% retinoic acid or 1% retinol pretreatment): about as effective as retinoic acid

Molecule: O=C1O[C@H]([C@@H](O)CO)C(O)=C1O [vitamin C, ascorbic acid]
- protection against UV-induced erythema (human skin; 1 MED): provided protection against erythema; also recorded: reduced the UV-induced erythema
- reduction in erythema (human skin; 1 MED): about 30%
- reduction in collagenase activity (type I collagenase; 1 MED, 3.5% vit. C applied 16 hours prior to exposure, vs untreated skin): ~25%

Molecule: vitamin E
- prevention of UV-induced erythema (human skin; about 2 MED): significantly reduced the erythema
- prevention of UV-induced erythema (human skin; about 2 MED, listed as Vitamin E): slightly worse but still very effective at preventing erythema
- inhibition of UV-induced collagenase activity (type I collagenase): neither melatonin nor vitamin E (both with pretreatment) prevented induction of MMPs; also recorded: did not function to inhibit the increased MMP activity
- inhibition of UV-induced 92 KDa gelatinase activity (92 KDa gelatinase; about 2 MED): neither melatonin nor vitamin E (both with pretreatment) prevented induction of MMPs; also recorded: did not function to inhibit the increased MMP activity
